Consider two compounds from patent US11541065B2, “Compositions and methods for treating brain injury” (UNM RAINFOREST INNOVATIONS, priority 2018, dated 2023).

In assay [1] the test system is hyperhomocysteinemic rats subjected to MCAO. The assay can be described thus: Adhesive removal test after MCAO. It counts as in vivo, male Wistar rats. The following applies: HHcy rats, 9 days after MCAO, NVP-AAM077 1.2 mg/kg. The protocol: All rats were subjected to a battery of behavioral tests on day 7 (CatWalk), day 8 (cylinder and rotarod tests) and day 9 (adhesive test) after MCAO to evaluate normal gait, motor coordination and sensory motor functions. Habituation and training (3 days) was performed for one week before MCAO. The first two trainings days were before osmotic pump implantation and the third training day was after pump implantation. An experienced observer blinded to the experimental conditions evaluated all behavioral parameters.
Adhesive removal test: Sensorimotor deficits following stroke was assessed by performing the adhesive removal test in control, hyperhomocysteinemic and NVP-AAM077 treated hyperhomocysteinemic rats. A small adhesive patch (7 mm×3 mm) was applied to the contralateral forepaw of each rat with equal pressure and the time taken to notice the presence of the patch (time to contact) and to remove it (time to remove) was recorded (Bouet et al., 2009, Nat Protoc 4:1560-1564). The time taken to notice the patch was recorded from the moment of placing the patch until the paw was shaken or touched by mouth. The time taken to remove the patch was recorded from the moment the mouth touched the paw to the time the patch was removed. The trial ended after the adhesive patch was removed or a maximum latency of three minutes. […]

The test system of another assay is ERK MAPK. As to the kind of experiment: ERK MAPK phosphorylation in ipsilateral cortex after MCAO (immunoblot). It counts as in vivo, Wistar rats. The following applies: HHcy rats, MCAO 60 min, three hours of reperfusion, vs vehicle treated rats. The protocol: FIG. 10. ERK MAPK phosphorylation. (A) Control and hyperhomocysteinemic (HHcy) rats were subjected to MCAO for 60 min followed by reperfusion (sham, 0, 3, 6, 12 h). Cortical tissue lysates from the ipsilateral hemisphere were analyzed by immunoblotting, using anti-pERK and anti-ERK antibodies. (B) Control, HHcy and HHcy rats treated with NVP-AAM077 (HHcy+NVP) were subjected to MCAO for 60 min followed by reperfusion for 3 h. Cortical tissue lysates from the ipsilateral hemisphere were analyzed by immunoblotting, using anti-pERK and anti-ERK antibodies. The extent of ERK MAPK phosphorylation was quantified using computer-assisted densitometry and Image J analysis. Values are mean±SEM (n=5). (A) *p<0.001 from corresponding control. (B) *p<0.001 from HHcy.
Next, whether a mild ischemic insult under hyperhomocysteinemic condition could lead to prolonged increase in ERK MAPK phosphorylation was evaluated using a middle cerebral artery occlusion (MCAO) model. Normal and hyperhomocysteinemic Wistar rats were subjected to MCAO for 60 minutes followed by reperfusion for specified time periods (0, 3, 6, 12 h). […] NVP-AM077, however, blocks the prolonged phosphrylation of ERK MAPK in hyperhomocysteinemic rats at three hours of reperfusion. […]

The test system of another assay is PGE2. The assay can be described thus: PGE2 release from WT and GluN2A-KO mouse neuronal cultures. It counts as cell-based, mice. The following applies: homocysteine 50 μM, four hours. The protocol:
Neuron cultures were treated with or without L-homocysteine in the presence or absence of pharmacological inhibitors for the time period specified in each experiment. The medium was collected from each experimental plate and centrifuged at 1000 rpm for five minutes to remove cellular debris. Equal amounts (100 μl) of the supernatant from each sample were used to determine the amount of PGE2 using the PGE2 enzyme immunoassay kit according to the manufacturer's instructions. For measurement of cPLA2 activity, the neuronal cells from the above treated conditions were harvested in ice-cold Tris-buffered saline (pH7.4) containing sodium pyrophosphate as phosphatase inhibitor, sonicated three times with five-second bursts and two minutes on ice between intervals. The lysed cell suspensions were centrifuged at 10,000 rpm for 10 minutes and the supernatant removed. Equal amounts of protein from the supernatant (assessed using BCA protein estimation kit) were estimated for activity of cPLA2 using cPLA2 activity assay kit according to the manufacturer's protocol.
For measurement of PGE2 levels and MCP-1 levels released from neurons, culture medium was collected from each experimental plate and centrifuged at 1000 rpm for five minutes to remove cellular debris. […]

Turning to `C[C@H](NC(c1cccc2[nH]c(=O)c(=O)[nH]c12)P(=O)(O)O)c1ccc(Br)cc1` (stereo partly drawn) [NVP-AAM077, ({[(1S)-1-(4-bromophenyl)ethyl]amino}-(2,3-dioxo-1,4-dihydroquinoxalin-5-yl)methyl)phosphonic acid], the “time to contact adhesive tape, contralateral forepaw” value in assay [1] (untreated HHcy 76.82±5.45 s) worked out at 31.18 ± 5.68 s. For the same compound, in assay [1] (untreated HHcy 127.86±7.29 s), the “time to remove adhesive tape, contralateral forepaw” value is 44.24 ± 7.59 s. Moreover, the “ERK MAPK phosphorylation in ipsilateral cortex” value in the assay on ERK MAPK is reported as “significant reduction ERK MAPK phosphorylation”.
Turning to `N[C@@H](CCS)C(=O)O` [L-homocysteine], the PGE2 release result in the assay on PGE2 (GluN2A-KO mice cultures) is recorded as “fails to induce PGE2 release”; with PGE2 (WT mice cultures) it was “significantly increases PGE2 release”.
